Assay results from patent US9381243B2, “Methods of identifying critically ill patients at increased risk of development of organ failure and compounds for the treatment hereof” (Rigshospitalet, priority 2008, dated 2016).

What was measured:
[1] = depends on administration form and/or dosage; cited from earlier work
[2] = test system: patients with severe sepsis; conditions: cited from earlier work
[3] = test system: critically ill patients admitted to the ICU; assay: Retrospective review of haemofiltration with or without Flolan in the filters; assay type: in vivo, human
Protocol: Ninety-four critically ill patients admitted to the intensive care unit (ICU) underwent haemofiltration with or without concomitant Flolan (prostacyclin) treatment. Flolan was administered in a low dose of 4-6 ng/kg/min in the filters to prevent these from clotting and consequently there was only a minor spill over of Flolan to the systemic circulation. The patients were retrospectively reviewed.

[4] = test system: platelet aggregation in whole blood; assay: Whole blood platelet aggregation (Multiplate) during Flolan infusion; assay type: in vivo, human; conditions: 6 healthy volunteers, 4 ng/kg/min IV, after 60 and 120 min infusion
Protocol: Six healthy volunteers were administered flolan (prostacyclin) intravenously at a dose of 4 ng/kg/min for 2 h. Blood samples for whole blood viscoelastical assay (Thrombelastography [TEG]) and whole blood platelet aggregation (Multiplate) was obtained before infusion of Flolan, after 60 min infusion of Flolan and after 120 min infusion of Flolan.
Whole blood impedance aggregometry analyzed by the Multiple Platelet function Analyzer (MultiPlate® analyzer). Analysis employing various platelet agonists: ASPItest (activation by arachidonic acid), COLtest (activation by collagen through the collagen receptor), TRAPtest (activation by TRAP-6 stimulates the thrombin receptor on the platelet surface and ADPtest (activation by ADP stimulates platelet activation by the ADP receptors).
MultiPlate continuously records platelet aggregation. The increase of impedance by the attachment of platelets onto the Multiplate sensors is transformed to arbitrary aggregation units (AU) and plotted against time as depicted in FIG. 2.

[5] = test system: whole blood haemostatic activity; assay: Whole blood viscoelastical assay (TEG) during Flolan infusion; assay type: in vivo, human; conditions: 6 healthy volunteers, 4 ng/kg/min IV, after 60 and 120 min infusion
Description: The TEG analyzer uses a small whole blood sample in a rotating cup and a pin suspended in the blood by a torsion wire, which is monitored for motion. To speed up the clot formation, a standardized amount of an activator of coagulation (e.g. Kaolin, tissue factor) may be added to the cup just before the pin is placed in the cup. The torque of the rotating cup is transmitted to the immersed pin only after fibrin and/or fibrin-platelet bonding has linked the cup and pin together. The strength and rate of these bonds affect the magnitude of the pin motion such that strong clots move the pin directly in phase with cup motion. Thus, the TEG technology documents the interaction of platelets with the protein coagulation cascade from the time of placing the blood in the analyzer until initial fibrin formation, clot rate strengthening and fibrin-platelet bonding via GPIIb/IIIa, through eventual clot lysis. […]
With regard to the TEG assay this was performed as recommended by the manufacturer and 340 μl are mixed with 20 μl CaCl 0.2 M (final concentration 11.1 mM in the cup) and kaolin at 37° C. after which the haemostatic activity is recorded as depicted in FIG. 1.

[6] = Flolan 4-6 ng/kg/min in the filters, n = 24

## CSCCNc1nc(SCCC(F)(F)F)nc2c1ncn2[C@@H]1O[C@H](COP(=O)(O)OP(=O)(O)C(Cl)(Cl)P(=O)(O)O)[C@@H](O)[C@H]1O [cangrelor]
[1]
  half time: 3 to 5 min

## Tifacogin: recombinant tissue factor pathway inhibitor
[2]; 1754 patients, severe sepsis, vs 33.9% placebo, p=0.88
  All cause mortality: 34.2%
[2]; in vivo
  risk of bleeding: increase in risk of bleeding

## CCCCC[C@H](O)/C=C/[C@@H]1[C@H]2C/C(=C/CCCC(=O)O)O[C@H]2C[C@H]1O [Flolan, prostacyclin]
[3]; [6]
  90 day survival (%): 67%
  Platelet count (difference before vs. after haemofiltration): +14
[3]; critically ill patients undergoing haemofiltration
  haemostatic competence as evaluated by transfusion requirements: does not negatively influence
[3]; vs. 39% non-flolan, p=0.12
  mortality at 30 days: 21%
[3]; vs. 53% non-flolan, p=0.10
  mortality at 90 days: 34%
[3]; vs. 57% non-flolan, p=0.09
  mortality at 365 days: 38%
[1]
  half time: 0.5 to 3 min
[4]
  Multiplate values (ASPI, COL, ADP, TRAP) vs baseline: no significant difference
[5]
  TEG values (R, Angle, MA) vs baseline: No significant difference

## CC#CCC(C)[C@H](O)/C=C/[C@@H]1[C@H]2C/C(=C/CCCC(=O)O)C[C@H]2C[C@H]1O (some centres unmarked) [Iloprost]
[1]
  half time: 20 to 30 min

## CC#CCC(C)[C@H](O)/C=C/[C@@H]1[C@H]2c3cccc(CCCC(=O)O)c3O[C@H]2C[C@H]1O (mixture of isomers) [Beraprost]
[1]
  half time: 35 to 40 min
